# Values of other authors as cited in publication PMC6631257.
# Test system: CYP2D6
row,SMILES,CYP2D6 inhibitor strength
1,COc1ccc([C@@H]2Sc3ccccc3N(CCN(C)C)C(=O)[C@@H]2OC(C)=O)cc1 [diltiazem],weak inhibitor
2,Fc1ccc([C@@H]2CCNC[C@H]2COc2ccc3c(c2)OCO3)cc1 [paroxetine],strong
3,CNCCC(Oc1ccc(C(F)(F)F)cc1)c1ccccc1 (stereo not drawn) [fluoxetine],strong
